Patent publication US20240000075A1, “FUNGICIDAL ARYL AMIDINES” (CORTEVA AGRISCIENCE LLC, priority 2020, published 2024)
Where two headings read alike, the source gives them in different places.

Assays:
Zymoseptoria tritici = assay: Septoria leaf blotch of wheat, whole-plant fungicidal activity (SEPTTR); format: in vivo, Zymoseptoria tritici on wheat plants (variety 'Yuma'); details: read-out: % Disease Control Rating SEPTTR
Summary of the method: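 Compounds in acetone, diluted with nine volumes of water containing 110 ppm Triton X-100, were sprayed to run-off on 'Yuma' wheat seedlings at full first-leaf emergence. Spore inoculation was 3 days before (3DC, curative) or 1 day after (1DP, protectant) treatment, then 3 days at 100% RH and greenhouse. First-leaf disease severity (0–100%) was scored relative to untreated plants as percent control.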

Puccinia triticina = assay: Wheat brown rust, whole-plant fungicidal activity (PUCCRT); format: in vivo, Puccinia triticina on wheat plants (variety 'Yuma'); details: 24 h, 1DP (1 day protectant), read-out: % Disease Control Rating PUCCRT
Summary of the method: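 Wheat 'Yuma' seedlings at first-leaf stage sprayed to run-off with compound from acetone stock diluted in nine volumes water containing 110 ppm Triton X-100, then inoculated with Puccinia triticina spores. Held overnight in dark dew room at 100% RH, then greenhouse for disease development.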

Phakopsora pachyrhizi = assay: Asian soybean rust, whole-plant fungicidal activity (PHAKPA); format: in vivo; details: read-out: % Disease Control Rating PHAKPA
Summary of the method: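 Ten-day-old 'Williams 82' soybean seedlings sprayed to run-off with compound in acetone/water (1:9, 0.011% Tween-20), air-dried, then inoculated; 24 h dark dew room at 100% RH, then growth room. Disease severity scored 0–100% on sprayed leaves; percent control relative to untreated plants.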

Rhynchosporium commune = assay: Leaf blotch of barley, whole-plant fungicidal activity (RHYNSE); format: in vivo; details: 24 h, 1DP (1 day protectant), read-out: % Disease Control Rating RHYNSE
Summary of the method: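 Barley cv. 'Harrington' at full first-leaf emergence (7-10 seedlings per pot) was sprayed to run-off with compound in acetone plus nine volumes of water containing 110 ppm Triton X-100, air-dried, then inoculated with spore suspension. Plants spent two days in a dark dew room at 100% RH, then moved to greenhouse for disease development.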

Cochliobolus sativus = assay: Spot blotch of barley, whole-plant fungicidal activity (COCHSA); format: in vivo; details: 1DP (1 day protectant), 200 ppm
Description: Technical grades of materials were dissolved in acetone, which were then mixed with nine volumes of water (H2O) containing 110 ppm Triton X-100. The fungicide solutions were applied onto wheat seedlings using an automated booth sprayer to run-off. All sprayed plants were allowed to air dry prior to further handling. All fungicides were evaluated using the aforementioned method for their activity vs. all target diseases, unless stated otherwise. Example E. Evaluation of Fungicidal Activity: Spot Blotch of Barley (Cochliobolus sativus Bayer Code COCHSA) Barley seedlings (variety ‘Harrington’) were propagated in soil-less potting mix, with each pot having 8 to 12 plants, and used for testing when the first leaf was fully emerged. Test plants were inoculated with a spore suspension of Cochliobolus sativus 24 h after fungicide treatments. After inoculation the plants were kept in […] for two days to permit spores to germinate and infect the leaf. The plants were then transferred to a greenhouse for disease to develop. Fungicide formulation, application and disease assessment followed the procedures as described in Example A.

With `CCN(C)/C=N/c1cc(C)c(C(=O)Cc2ccc(C)cc2)cc1C` [Compound 9] the pest or weed control at 200 ppm (Zymoseptoria tritici; 24 h, 1DP (1 day protectant)) was less than 20%, the pest or weed control at 200 ppm (Zymoseptoria tritici; 72 h, 3DC (3 day curative)) was less than 20% and the pest or weed control at 200 ppm (Puccinia triticina) was greater than 85%. For the same molecule, the pest or weed control at 200 ppm (Phakopsora pachyrhizi; 24 h, 1DP (1 day protectant)) was greater than 85%, the pest or weed control at 200 ppm (Phakopsora pachyrhizi; 72 h, 3DC (3 day curative)) was greater than 85% and the pest or weed control at 200 ppm (Rhynchosporium commune) was greater than 85%. The “% Disease Control Rating COCHSA” value (Cochliobolus sativus) was “A (>85%)” and the melting point was 90 to 93 °C.

Work on `CCN(C)/C=N/c1cc(C)c(C(=O)CC2CCCC2)cc1C` [Compound 4] yielded a pest or weed control at 200 ppm (Zymoseptoria tritici; 24 h, 1DP (1 day protectant)) greater than 85%, a pest or weed control at 200 ppm (Zymoseptoria tritici; 72 h, 3DC (3 day curative)) of 50 to 85% and a pest or weed control at 200 ppm (Puccinia triticina) greater than 85%. It also gave a pest or weed control at 200 ppm (Phakopsora pachyrhizi; 24 h, 1DP (1 day protectant)) greater than 85%, a pest or weed control at 200 ppm (Phakopsora pachyrhizi; 72 h, 3DC (3 day curative)) greater than 85% and a pest or weed control at 200 ppm (Rhynchosporium commune) greater than 85%. The “% Disease Control Rating COCHSA” value (Cochliobolus sativus) was “A (>85%)”.
